Measurements taken from patent publication US8629150B2, “Compounds for the treatment of hepatitis C” (priority 2011, dated 2014).

Test system: HCV pseudoparticles (genotype 1a HCV E1 and E2 envelope, H77C isolate)
Assay: HCV pseudoparticle infection assay (luciferase, Huh7 cells)
Assay type: cell-based, HCV genotype 1a (H77C isolate)
Settings: HCV pseudoparticle entry into Huh7 cells, luciferase 2 days after infection
[1] = Hepatitis C virus, Huh-7, 48 h, average of duplicates
[2] = Hepatitis C virus, Huh-7, 48 h, class symbol

What does the source list for `CC1(C)CNCCCOc2ccc(cc2F)CNc2cc(nc(OCC(F)(F)F)n2)Nc2ccc(cc2)C(=O)NC1` [Example 2003]?
EC50 [1]: 0.76 nM; EC50 [2]: < 100 nM

How did the EC50 [1] turn out when `CC1(C)CNCCCOc2ccc(cc2)CNc2cc(nc(OCC(F)(F)F)n2)Nc2ccc(cc2)C(=O)NC1` [Example 2001] was run?
The EC50 was 1.34 nM.

And the EC50 [2]?
The EC50 was under 100 nM.

`CC1(C)CCNC(=O)c2ccc(cc2)Nc2cc(nc(OCC(F)(F)F)n2)NCc2ccc(cc2)OCCCN1` [Compound 1001] was tested. Which EC50 (average of duplicates) did it give?
The EC50 was 907 nM.

What about the EC50 (class symbol) of the same compound?
The EC50 was 100 to 1000 nM.

What does the source list for `CC1CNCC(C)(C)CNC(=O)c2ccc(nc2)Nc2cc(nc(OCC(F)(F)F)n2)NCc2ccc(cc2)OC1` (centres unmarked) [Compound 1005]?
EC50 [1]: 0.38 nM; EC50 [2]: < 100 nM

How did the EC50 [1] turn out when `O=C1NCCCOCCCCOCCCNc2cc(nc(OCC(F)(F)F)n2)Nc2ccc1cn2` [Compound 1002] was run?
The EC50 was 215 nM.

What about the EC50 [2] of the same compound?
The EC50 was 100 to 1000 nM.

Which results are given for `CC1(C)CNCCCOc2ccc(cc2)CNc2cc(nc(OCC(F)(F)F)n2)Nc2ccc(cn2)C(=O)NC1` [Compound 1003]?
EC50 [1]: 0.21 nM; EC50 [2]: < 100 nM

Which EC50 [1] does the source give for `O=C1NCC2(CC2)CNCCCOc2ccc(cc2)CNc2cc(nc(OCC(F)(F)F)n2)Nc2ccc1cc2` [Example 2004] here?
Its EC50 is 396 nM.

What about the EC50 [2] of the same compound?
Its EC50 is 100 to 1000 nM.

Which EC50 [1] does the source give for `C[C@H]1CNCC(C)(C)CNC(=O)c2ccc(nc2)Nc2cc(nc(OCC(F)(F)F)n2)NCc2ccc(cc2)OC1` [Compound 1006] here?
Its EC50 is 0.45 nM.

What about the EC50 [2] of the same compound?
Its EC50 is under 100 nM.

`C[C@@H]1CNCC(C)(C)CNC(=O)c2ccc(nc2)Nc2cc(nc(OCC(F)(F)F)n2)NCc2ccc(cc2)OC1` [Compound 1007] was tested. Which EC50 [1] did it give?
Its EC50 is 0.19 nM.

What about the EC50 [2] of the same compound?
Its EC50 is under 100 nM.

Which results are given for `C[C@H]1CNCCCOc2ccc(cc2)CNc2cc(nc(OCC(F)(F)F)n2)Nc2ccc(cc2)C(=O)NC1` [Example 2005]?
EC50 [1]: 184 nM; EC50 [2]: 100 to 1000 nM

With `CC1(C)CNCCCOc2ccc(c(F)c2)CNc2cc(nc(OCC(F)(F)F)n2)Nc2ccc(cc2)C(=O)NC1` [Example 2002] as the compound, how does the EC50 [1] read?
The EC50 was 0.81 nM.

And the EC50 [2]?
The EC50 was under 100 nM.

Which EC50 [1] does the source give for `C=C1CNCC(C)(C)CNC(=O)c2ccc(nc2)Nc2cc(nc(OCC(F)(F)F)n2)NCc2ccc(cc2)OC1` [Compound 1004] here?
Its EC50 is 0.49 nM.

What about the EC50 [2] of the same compound?
The EC50 was under 100 nM.

For `CC1(C)CCNC(=O)c2ccc(cc2)Nc2cc(nc(OCC(F)(F)F)n2)NCc2ccc(cc2)OCCCN1` [Example 2006], which EC50 (average of duplicates) is on record?
Its EC50 is 326 nM.

And the EC50 [2]?
Its EC50 is 100 to 1000 nM.
